Tests used:
[1] = molecular target: Serine/threonine-protein kinase PLK1 (Homo sapiens) (UniProt P53350); test: Inhibition of human PLK1 at 18.6 nM by HotSpot assay relative to control
[2] = molecular target: Leucine-rich repeat serine/threonine-protein kinase 2 (Homo sapiens) (UniProt Q5S007); test: Inhibition of human LRRK2 at 18.6 nM by HotSpot assay relative to control
[3] = molecular target: Hepatocyte growth factor receptor (Homo sapiens) (UniProt P08581); test: Inhibition of human c-MET at 18.6 nM by HotSpot assay relative to control
[4] = molecular target: Serine/threonine-protein kinase WNK3 (Homo sapiens) (UniProt Q9BYP7); test: Inhibition of human WNK3 at 18.6 nM by HotSpot assay relative to control
[5] = molecular target: Casein kinase I isoform gamma-3 (Homo sapiens) (UniProt Q9Y6M4); test: Inhibition of human CK1g3 at 18.6 nM by HotSpot assay relative to control
[6] = molecular target: T1, Muscle, skeletal receptor tyrosine-protein kinase (Homo sapiens) (UniProt O15146); test: Inhibition of human MUSK at 18.6 nM by HotSpot assay relative to control
T1 sequence (whole entry): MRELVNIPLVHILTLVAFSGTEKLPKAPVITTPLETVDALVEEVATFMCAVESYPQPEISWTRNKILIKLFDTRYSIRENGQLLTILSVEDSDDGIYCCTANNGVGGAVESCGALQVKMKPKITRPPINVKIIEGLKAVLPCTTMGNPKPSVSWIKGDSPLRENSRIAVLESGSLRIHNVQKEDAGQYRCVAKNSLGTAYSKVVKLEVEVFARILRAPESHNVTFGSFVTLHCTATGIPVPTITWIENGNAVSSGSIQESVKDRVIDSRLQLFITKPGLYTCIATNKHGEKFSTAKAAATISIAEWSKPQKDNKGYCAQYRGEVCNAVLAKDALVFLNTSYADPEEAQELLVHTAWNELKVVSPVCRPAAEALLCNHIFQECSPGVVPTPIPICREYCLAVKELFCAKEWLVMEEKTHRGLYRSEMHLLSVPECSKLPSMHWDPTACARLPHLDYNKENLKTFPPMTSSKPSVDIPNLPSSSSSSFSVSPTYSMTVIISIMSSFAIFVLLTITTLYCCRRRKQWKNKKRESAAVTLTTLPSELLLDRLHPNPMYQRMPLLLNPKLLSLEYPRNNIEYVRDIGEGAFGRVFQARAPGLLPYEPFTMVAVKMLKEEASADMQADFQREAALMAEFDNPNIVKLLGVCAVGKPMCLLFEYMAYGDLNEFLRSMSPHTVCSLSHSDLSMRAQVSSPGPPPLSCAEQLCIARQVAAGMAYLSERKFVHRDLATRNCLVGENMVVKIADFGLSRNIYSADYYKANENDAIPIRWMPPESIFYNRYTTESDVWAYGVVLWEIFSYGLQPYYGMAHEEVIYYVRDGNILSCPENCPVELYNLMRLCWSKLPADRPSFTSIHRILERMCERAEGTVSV

[7] = molecular target: Angiopoietin-1 receptor (Homo sapiens) (UniProt Q02763); test: Inhibition of human TEK at 18.6 nM by HotSpot assay relative to control
[8] = molecular target: Homeodomain-interacting protein kinase 1 (Homo sapiens) (UniProt Q86Z02); test: Inhibition of human HIPK1 at 18.6 nM by HotSpot assay relative to control
[9] = molecular target: Mitogen-activated protein kinase 3 (Homo sapiens) (UniProt P27361); test: Inhibition of human ERK1 at 18.6 nM by HotSpot assay relative to control
[10] = molecular target: Mitogen-activated protein kinase 10 (Homo sapiens) (UniProt P53779); test: Inhibition of human JNK3 at 18.6 nM by HotSpot assay relative to control
[11] = molecular target: Ephrin type-A receptor 7 (Homo sapiens) (UniProt Q15375); test: Inhibition of human EPHA7 at 1.82 nM by HotSpot assay relative to control
[12] = molecular target: Tyrosine-protein kinase Lyn (Homo sapiens) (UniProt P07948); test: Inhibition of human LYN B at 1.82 nM by HotSpot assay relative to control
[13] = molecular target: T2, 3-phosphoinositide-dependent protein kinase 1 (Homo sapiens) (UniProt O15530); test: Inhibition of human PDPK1 at 1.82 nM by HotSpot assay relative to control
T2 sequence (whole entry): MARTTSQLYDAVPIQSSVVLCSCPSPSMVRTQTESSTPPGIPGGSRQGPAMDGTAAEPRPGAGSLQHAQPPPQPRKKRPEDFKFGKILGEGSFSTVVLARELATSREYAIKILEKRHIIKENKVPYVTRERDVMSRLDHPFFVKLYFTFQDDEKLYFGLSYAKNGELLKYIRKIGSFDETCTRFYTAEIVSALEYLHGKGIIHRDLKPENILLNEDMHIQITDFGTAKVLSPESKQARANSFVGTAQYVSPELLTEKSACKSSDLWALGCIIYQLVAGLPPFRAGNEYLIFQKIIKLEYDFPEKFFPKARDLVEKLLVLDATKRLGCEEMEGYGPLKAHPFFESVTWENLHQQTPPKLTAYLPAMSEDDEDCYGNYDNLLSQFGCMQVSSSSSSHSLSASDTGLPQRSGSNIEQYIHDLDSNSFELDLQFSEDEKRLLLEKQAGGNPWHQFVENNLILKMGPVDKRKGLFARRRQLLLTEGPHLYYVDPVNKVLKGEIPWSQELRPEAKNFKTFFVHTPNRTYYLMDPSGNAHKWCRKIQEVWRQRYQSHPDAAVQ

[14] = molecular target: Mitogen-activated protein kinase kinase kinase 20 (Homo sapiens) (UniProt Q9NYL2); test: Inhibition of human MLTK at 1.82 nM by HotSpot assay relative to control
[15] = molecular target: Calcium/calmodulin-dependent protein kinase kinase 2 (Homo sapiens) (UniProt Q96RR4); test: Inhibition of human CAMKK2 at 1.82 nM by HotSpot assay relative to control
[16] = molecular target: T3, Calcium/calmodulin-dependent protein kinase type IV (Homo sapiens) (UniProt Q16566); test: Inhibition of human CAMK4 at 1.82 nM by HotSpot assay relative to control
T3 sequence (whole entry): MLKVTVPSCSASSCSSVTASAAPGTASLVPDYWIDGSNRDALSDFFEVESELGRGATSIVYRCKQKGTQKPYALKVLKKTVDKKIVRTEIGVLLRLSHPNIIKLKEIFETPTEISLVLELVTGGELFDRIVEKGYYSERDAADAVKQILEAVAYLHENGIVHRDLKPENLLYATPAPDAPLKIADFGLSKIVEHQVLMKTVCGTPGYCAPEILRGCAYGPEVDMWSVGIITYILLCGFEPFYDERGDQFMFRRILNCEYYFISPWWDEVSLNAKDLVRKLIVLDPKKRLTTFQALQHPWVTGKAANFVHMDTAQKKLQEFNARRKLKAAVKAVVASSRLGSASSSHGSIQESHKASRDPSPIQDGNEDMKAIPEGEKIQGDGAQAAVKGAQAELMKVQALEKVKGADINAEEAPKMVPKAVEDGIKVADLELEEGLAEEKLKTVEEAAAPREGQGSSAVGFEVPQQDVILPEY

Chain of Serine/threonine-protein kinase WNK3 (Homo sapiens) (Q9BYP7 whole entry, canonical isoform): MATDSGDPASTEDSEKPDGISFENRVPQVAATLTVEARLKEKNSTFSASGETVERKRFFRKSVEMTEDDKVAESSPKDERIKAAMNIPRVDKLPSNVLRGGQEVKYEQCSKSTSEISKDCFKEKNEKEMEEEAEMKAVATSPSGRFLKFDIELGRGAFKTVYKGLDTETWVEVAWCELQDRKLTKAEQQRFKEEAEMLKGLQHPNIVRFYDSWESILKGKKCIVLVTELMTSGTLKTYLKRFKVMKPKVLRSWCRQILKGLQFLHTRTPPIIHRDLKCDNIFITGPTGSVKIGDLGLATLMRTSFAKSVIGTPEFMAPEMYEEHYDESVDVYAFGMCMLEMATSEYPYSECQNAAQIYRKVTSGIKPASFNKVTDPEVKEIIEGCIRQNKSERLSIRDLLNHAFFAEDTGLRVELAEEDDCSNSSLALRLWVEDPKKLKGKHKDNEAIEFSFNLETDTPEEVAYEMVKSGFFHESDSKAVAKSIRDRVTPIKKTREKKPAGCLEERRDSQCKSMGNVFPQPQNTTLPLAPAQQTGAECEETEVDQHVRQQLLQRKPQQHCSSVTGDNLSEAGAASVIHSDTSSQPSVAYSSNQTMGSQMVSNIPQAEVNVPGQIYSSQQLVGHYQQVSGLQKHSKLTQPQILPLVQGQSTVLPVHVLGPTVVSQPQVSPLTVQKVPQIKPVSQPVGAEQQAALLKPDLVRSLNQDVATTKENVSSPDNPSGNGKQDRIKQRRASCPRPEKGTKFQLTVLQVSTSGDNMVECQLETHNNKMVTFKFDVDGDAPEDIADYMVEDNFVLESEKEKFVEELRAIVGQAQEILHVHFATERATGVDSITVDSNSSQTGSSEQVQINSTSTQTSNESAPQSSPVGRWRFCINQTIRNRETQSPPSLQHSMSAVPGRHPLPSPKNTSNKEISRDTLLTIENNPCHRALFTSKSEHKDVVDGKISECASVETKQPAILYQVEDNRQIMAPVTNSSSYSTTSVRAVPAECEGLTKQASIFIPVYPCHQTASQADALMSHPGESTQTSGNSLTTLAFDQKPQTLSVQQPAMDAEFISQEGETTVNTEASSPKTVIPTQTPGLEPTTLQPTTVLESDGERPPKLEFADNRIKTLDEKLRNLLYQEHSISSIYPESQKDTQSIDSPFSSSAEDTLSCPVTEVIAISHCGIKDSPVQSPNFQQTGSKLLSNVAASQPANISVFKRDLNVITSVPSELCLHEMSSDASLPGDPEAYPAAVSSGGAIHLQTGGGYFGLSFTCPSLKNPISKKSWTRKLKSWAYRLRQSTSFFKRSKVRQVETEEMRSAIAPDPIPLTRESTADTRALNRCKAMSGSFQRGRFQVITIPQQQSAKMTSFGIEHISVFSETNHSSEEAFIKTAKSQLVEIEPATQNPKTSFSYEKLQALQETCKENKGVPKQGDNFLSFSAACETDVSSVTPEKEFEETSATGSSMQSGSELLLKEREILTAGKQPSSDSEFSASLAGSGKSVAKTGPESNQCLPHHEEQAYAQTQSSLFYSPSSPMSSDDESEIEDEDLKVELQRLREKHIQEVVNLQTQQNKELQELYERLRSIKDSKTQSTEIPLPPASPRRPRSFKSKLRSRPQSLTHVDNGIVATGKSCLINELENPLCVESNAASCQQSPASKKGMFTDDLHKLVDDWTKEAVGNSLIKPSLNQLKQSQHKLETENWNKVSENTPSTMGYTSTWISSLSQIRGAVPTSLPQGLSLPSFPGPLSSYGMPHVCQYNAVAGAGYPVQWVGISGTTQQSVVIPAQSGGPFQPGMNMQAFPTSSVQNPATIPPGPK
Chain of Leucine-rich repeat serine/threonine-protein kinase 2 (Homo sapiens) (Q5S007 whole entry): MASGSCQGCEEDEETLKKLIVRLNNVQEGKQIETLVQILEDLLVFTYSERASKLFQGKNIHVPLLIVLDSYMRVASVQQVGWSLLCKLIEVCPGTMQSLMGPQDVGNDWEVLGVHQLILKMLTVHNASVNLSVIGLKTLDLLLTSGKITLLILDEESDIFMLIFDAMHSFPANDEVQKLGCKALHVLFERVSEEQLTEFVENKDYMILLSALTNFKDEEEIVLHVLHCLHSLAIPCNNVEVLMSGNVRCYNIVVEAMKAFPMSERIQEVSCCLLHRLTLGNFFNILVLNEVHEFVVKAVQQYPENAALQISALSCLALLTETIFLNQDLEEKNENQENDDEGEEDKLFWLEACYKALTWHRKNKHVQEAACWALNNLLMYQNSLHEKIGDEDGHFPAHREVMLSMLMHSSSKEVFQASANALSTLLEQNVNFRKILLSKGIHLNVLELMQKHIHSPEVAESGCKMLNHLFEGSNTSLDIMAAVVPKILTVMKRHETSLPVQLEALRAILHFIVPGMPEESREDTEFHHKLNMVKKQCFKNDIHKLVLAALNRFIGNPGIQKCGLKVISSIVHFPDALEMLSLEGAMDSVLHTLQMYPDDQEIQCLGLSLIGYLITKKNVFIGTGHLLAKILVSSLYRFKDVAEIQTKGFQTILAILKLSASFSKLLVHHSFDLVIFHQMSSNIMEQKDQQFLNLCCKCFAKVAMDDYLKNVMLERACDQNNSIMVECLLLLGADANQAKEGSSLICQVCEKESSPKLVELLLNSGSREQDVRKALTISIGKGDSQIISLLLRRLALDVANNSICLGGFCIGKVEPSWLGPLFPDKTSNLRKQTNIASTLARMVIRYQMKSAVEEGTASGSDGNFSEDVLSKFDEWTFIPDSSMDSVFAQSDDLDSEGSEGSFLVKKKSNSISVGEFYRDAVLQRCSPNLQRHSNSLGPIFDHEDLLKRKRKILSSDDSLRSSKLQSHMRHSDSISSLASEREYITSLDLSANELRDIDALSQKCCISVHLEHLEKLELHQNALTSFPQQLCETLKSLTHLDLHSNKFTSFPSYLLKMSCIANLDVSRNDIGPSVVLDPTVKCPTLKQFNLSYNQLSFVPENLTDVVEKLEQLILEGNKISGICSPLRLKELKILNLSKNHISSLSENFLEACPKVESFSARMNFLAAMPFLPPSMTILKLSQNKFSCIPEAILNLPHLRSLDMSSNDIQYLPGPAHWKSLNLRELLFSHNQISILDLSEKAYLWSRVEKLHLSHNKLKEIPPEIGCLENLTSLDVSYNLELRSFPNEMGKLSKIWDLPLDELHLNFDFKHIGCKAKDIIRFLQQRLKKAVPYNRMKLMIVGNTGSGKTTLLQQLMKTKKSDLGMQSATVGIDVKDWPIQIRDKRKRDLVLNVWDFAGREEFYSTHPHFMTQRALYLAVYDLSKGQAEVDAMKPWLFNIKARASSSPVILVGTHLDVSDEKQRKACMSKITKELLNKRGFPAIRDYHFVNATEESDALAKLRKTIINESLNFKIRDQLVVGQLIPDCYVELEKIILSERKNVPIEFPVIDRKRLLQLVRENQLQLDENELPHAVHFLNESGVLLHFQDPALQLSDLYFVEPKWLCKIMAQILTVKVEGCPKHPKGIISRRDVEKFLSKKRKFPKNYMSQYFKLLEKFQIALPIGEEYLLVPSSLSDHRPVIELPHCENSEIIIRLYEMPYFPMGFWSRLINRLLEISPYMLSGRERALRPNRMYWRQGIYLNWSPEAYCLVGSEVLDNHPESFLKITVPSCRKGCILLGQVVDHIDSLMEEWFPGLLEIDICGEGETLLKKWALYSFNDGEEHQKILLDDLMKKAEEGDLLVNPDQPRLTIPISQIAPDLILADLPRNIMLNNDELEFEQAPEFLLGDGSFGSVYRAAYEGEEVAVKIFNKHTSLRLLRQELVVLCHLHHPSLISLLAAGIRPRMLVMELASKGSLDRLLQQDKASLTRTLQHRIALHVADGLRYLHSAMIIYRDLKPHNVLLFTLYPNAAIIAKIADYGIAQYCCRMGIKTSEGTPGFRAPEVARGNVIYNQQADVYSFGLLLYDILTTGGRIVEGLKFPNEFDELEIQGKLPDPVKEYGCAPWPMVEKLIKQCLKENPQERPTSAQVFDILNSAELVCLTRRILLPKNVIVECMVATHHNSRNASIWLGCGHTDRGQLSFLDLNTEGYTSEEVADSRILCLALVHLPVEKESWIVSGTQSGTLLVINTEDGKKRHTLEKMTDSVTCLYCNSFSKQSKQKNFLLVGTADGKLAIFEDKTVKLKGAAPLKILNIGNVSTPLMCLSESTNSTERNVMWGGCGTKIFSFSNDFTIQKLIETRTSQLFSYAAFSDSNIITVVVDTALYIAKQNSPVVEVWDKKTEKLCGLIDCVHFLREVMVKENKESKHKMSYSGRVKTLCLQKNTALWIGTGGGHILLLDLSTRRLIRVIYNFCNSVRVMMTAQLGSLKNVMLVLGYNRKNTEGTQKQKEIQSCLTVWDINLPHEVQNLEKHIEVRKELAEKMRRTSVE
Chain of Casein kinase I isoform gamma-3 (Homo sapiens) (Q9Y6M4 whole entry, looked up, canonical isoform): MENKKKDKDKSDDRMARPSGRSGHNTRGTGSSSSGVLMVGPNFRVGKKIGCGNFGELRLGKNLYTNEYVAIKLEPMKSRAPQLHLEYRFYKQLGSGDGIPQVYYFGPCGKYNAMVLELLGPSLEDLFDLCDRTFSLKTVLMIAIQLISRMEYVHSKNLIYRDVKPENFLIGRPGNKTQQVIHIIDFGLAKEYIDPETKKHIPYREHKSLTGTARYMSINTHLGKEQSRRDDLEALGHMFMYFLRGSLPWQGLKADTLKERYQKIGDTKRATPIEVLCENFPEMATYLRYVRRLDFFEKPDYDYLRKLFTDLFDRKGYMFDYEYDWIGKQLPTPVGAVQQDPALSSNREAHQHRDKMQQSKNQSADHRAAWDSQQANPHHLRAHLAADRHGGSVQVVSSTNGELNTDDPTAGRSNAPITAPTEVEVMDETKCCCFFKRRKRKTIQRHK
Chain of Mitogen-activated protein kinase 3 (Homo sapiens) (P27361 whole entry): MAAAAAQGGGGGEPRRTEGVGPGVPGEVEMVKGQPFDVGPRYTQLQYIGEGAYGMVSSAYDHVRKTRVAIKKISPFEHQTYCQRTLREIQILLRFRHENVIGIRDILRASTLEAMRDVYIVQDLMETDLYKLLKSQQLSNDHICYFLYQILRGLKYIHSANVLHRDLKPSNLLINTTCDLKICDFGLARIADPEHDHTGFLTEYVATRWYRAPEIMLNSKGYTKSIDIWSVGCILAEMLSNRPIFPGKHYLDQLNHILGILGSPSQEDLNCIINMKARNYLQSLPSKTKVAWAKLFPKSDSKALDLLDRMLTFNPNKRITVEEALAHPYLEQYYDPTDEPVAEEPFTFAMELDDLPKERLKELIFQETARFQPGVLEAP

| inhibition [1] | inhibition [2] | inhibition [3] | inhibition [4] | inhibition [5] | inhibition [6] | inhibition [7] | inhibition [8] | inhibition [9] | inhibition [10] | inhibition [11] | inhibition [12] | inhibition [13] | inhibition [14] | inhibition [15] | inhibition [16] | Structure (SMILES) |
| --- | --- | --- | --- | --- | --- | --- | --- | --- | --- | --- | --- | --- | --- | --- | --- | --- |
| -7.65% | -3.07% | -4.38% | 6.05% | 1.42% | 1.47% | 2.86% | -4.32% | -9.66% | -3.24% |  |  |  |  |  |  | C[C@]1(O)C[C@@H](c2nc(-c3ccc4ccc(-c5ccccc5)nc4c3)c3c(N)nccn32)C1 |
|  |  |  |  |  |  |  |  |  |  | 3.41% | 2.74% | -0.32% | 2.09% | 26.5% | 3.45% | C[C@@]1(C(=O)Nc2ccc(F)nc2)CCCN1c1nc(Nc2cc(C3CC3)n[nH]2)c2cccn2n1 |

Source: ChEMBL document CHEMBL5653615 (J Biol Chem, 2013)
